Measured values from publication PMC12040169 (PLOS Biology, 2025).

Test: in vitro
Details: human, hela cells, % viability

| SMILES | viability at 28.5 h, 10 µM |
| --- | --- |
| CCc1c(C)nc2ccc(NC(C)=O)cc2c1SCCC(=O)O [CBK159465T] | 98.7% |
| O=C(O)Cc1nc(-c2ccccc2)c(-c2ccccc2)s1 [CBK159470] | 99.4% |
| CCCS(=O)(=O)Nc1cccc2[nH]ccc12 [CBK159488] | 97.5% |
| O=S(=O)(Cc1ccccc1)Nc1cccc2[nH]ccc12 [CBK159490] | 76.6% |
| CN(C)S(=O)(=O)Nc1cccc2cc[nH]c12 [CBK159505] | 92.8% |
| CS(=O)(=O)Nc1cccc2cc[nH]c12 [CBK159509] | 110% |
| O=S(=O)(Nc1ccc2c(ccn2Cc2ccccc2)c1)c1ccc(S(=O)(=O)c2ccccc2)s1 [CBK159533] | 114% |
| O=[N+]([O-])c1ccc(S(=O)(=O)Nc2cccc3[nH]ccc23)cc1 [CBK159550] | 87.1% |
| CCc1c(C)nc2c(N3CCOC3=O)cccc2c1SCCC(=O)O [CBK159595T] | 91.7% |
| O=C(Nc1cccc2[nH]ccc12)c1ccc(Cl)cc1 [CBK159632] | 91.7% |
| O=C(Nc1cccc2[nH]ccc12)c1cccc(F)c1Cl [CBK159638] | 76.4% |
| O=C(Nc1cccc2[nH]ccc12)c1ccc(Br)cc1Cl [CBK159643] | 78.7% |
| CC(C(=O)Nc1cccc2[nH]ccc12)c1ccc(Cl)cc1 (stereo not shown) [CBK159647] | 107% |
| O=C(Cc1cc(F)cc(F)c1F)Nc1cccc2[nH]ccc12 [CBK159650] | 89% |
| O=C(COc1ccc(F)cc1)Nc1cccc2[nH]ccc12 [CBK159653] | 86% |
| CSCCC(=O)Nc1cccc2[nH]ccc12 [CBK159655] | 105% |
| O=C(Nc1cccc2[nH]ccc12)c1ccc2c(c1)OCCO2 [CBK159657] | 85.7% |
| O=C(Nc1cccc2[nH]ccc12)c1ccoc1 [CBK159659] | 94.8% |
| CN(C)CCCC(=O)Nc1cccc2[nH]ccc12 [CBK159660] | 99.9% |
| O=C(Cc1c(Cl)cccc1Cl)Nc1ccc2[nH]ccc2c1 [CBK159664] | 113% |
| O=C(Nc1ccc2[nH]ccc2c1)c1c(F)ccc(Cl)c1F [CBK159673] | 78.6% |
| Cc1ccc(C(=O)Nc2ccc3[nH]ccc3c2)cc1Cl [CBK159677] | 85.5% |
| COc1ccc(C(=O)Nc2ccc3[nH]ccc3c2)cc1Cl [CBK159681] | 94% |

| SMILES | viability at 28.5 h, 10 µM |
| --- | --- |
| O=C(Nc1ccc2[nH]ccc2c1)c1ccc(F)c(F)c1 [CBK159683] | 88.3% |
| O=C(Cc1cc(F)cc(F)c1F)Nc1ccc2[nH]ccc2c1 [CBK159686] | 87.4% |
| O=C(Nc1ccc2[nH]ccc2c1)c1ccc(OC(F)(F)F)cc1 [CBK159688] | 61.5% |
| Cc1cc(CC(=O)Nc2ccc3[nH]ccc3c2)on1 [CBK159690] | 103% |
| COc1cc(C(=O)Nc2ccc3[nH]ccc3c2)cc(OC)c1OC [CBK159696] | 92.9% |
| CSCCC(=O)Nc1ccc2c(ccn2Cc2ccccc2)c1 [CBK159732] | 69.4% |
| CN(C)CCCC(=O)Nc1ccc2c(ccn2Cc2ccccc2)c1 [CBK159740] | 91.2% |
| O=C(Cc1ccc(Cl)cc1Cl)NCCc1c[nH]c2ccc(Cl)cc12 [CBK159744] | 104% |
| O=C(NCCc1c[nH]c2ccc(Cl)cc12)c1ccc(Cl)cc1Br [CBK159755] | 96.3% |
| O=C(NCCc1c[nH]c2ccc(Cl)cc12)c1cc(F)c(Cl)cc1F [CBK159763] | 93.6% |
| Cc1cc(Br)ccc1C(=O)NCCc1c[nH]c2ccc(Cl)cc12 [CBK159771] | 91% |
| Cc1cc(CC(=O)NCCc2c[nH]c3ccc(Cl)cc23)on1 [CBK159774] | 86.4% |
| CSCCC(=O)NCCc1c[nH]c2ccc(Cl)cc12 [CBK159775] | 95.6% |
| O=C(NCCc1c[nH]c2ccc(Cl)cc12)c1cccnc1 [CBK159778] | 106% |
| O=C(Nc1ccc2ncccc2c1)c1ccc(F)cc1Cl [CBK159796] | 91.1% |
| O=C(Nc1ccc2ncccc2c1)c1cccc(F)c1Cl [CBK159800] | 85.9% |
| Cc1cc(C(=O)Nc2ccc3ncccc3c2)ccc1Cl [CBK159804] | 88.8% |
| O=C(Nc1ccc2ncccc2c1)c1ccc(F)c(F)c1 [CBK159810] | 78.5% |
| O=C(Nc1ccc2ncccc2c1)c1ccoc1 [CBK159823] | 95.8% |
| CN1CCC[C@H]1C(=O)Nc1ccc2ncccc2c1 [CBK159825] | 95.7% |
| CC(C)Cn1c(=O)c(C(=O)Nc2cccc(Cl)c2)c(O)c2ccccc21 [CBK159967] | 103% |
| CC(C)CCNC(=O)c1c(O)c2ccccc2[nH]c1=O [CBK159975] | 91.7% |
| COc1cc2[nH]c(=O)c(C(=O)NCCc3ccc(Cl)cc3)c(O)c2cc1OC [CBK159986] | 91.3% |

| SMILES | viability at 28.5 h, 10 µM |
| --- | --- |
| COc1cc2ncc(C(=O)NCc3cccs3)c(O)c2cc1OC [CBK159998] | 91.9% |
| COCCNC(=O)c1cnc2ccc(OC)cc2c1O [CBK159999] | 95.9% |
| O=C(COc1ccc(Cl)cc1Cl)Nc1ccc2cc[nH]c2c1 [CBK160023] | 92.5% |
| O=C(Cc1ccc(F)cc1F)Nc1ccc2cc[nH]c2c1 [CBK160044] | 102% |
| Cc1cc(Br)ccc1C(=O)Nc1ccc2cc[nH]c2c1 [CBK160046] | 84.1% |
| O=C(Nc1ccc2cc[nH]c2c1)c1cccnc1 [CBK160053] | 97.9% |
| O=C(Nc1cccc2cc[nH]c12)c1cccc(F)c1Cl [CBK160074] | 99.8% |
| Cc1cc(C(=O)Nc2cccc3cc[nH]c23)ccc1Cl [CBK160078] | 96.2% |
| NS(=O)(=O)c1ccc(C(=O)Nc2cccc3cc[nH]c23)cc1 [CBK160094] | 94.8% |
| CN1CCC[C@H]1C(=O)Nc1cccc2cc[nH]c12 [CBK160098] | 104% |
| CCOC(=O)C1CCN(C(=O)c2cccnc2NCc2ccc3c(c2)OCO3)CC1 [CBK160106] | 118% |
| Cc1ccc2c(c1)CCCN2C(=O)c1cccnc1NCc1ccc2c(c1)OCO2 [CBK160113] | 94.5% |
| O=C(Cc1nnn[nH]1)Nc1cccc(-c2nn[nH]n2)c1 [CBK160122] | 116% |
| CCOC(=O)c1[nH]c2ccccc2c1NC(=O)Cc1c(Cl)cccc1Cl [CBK160132] | 95.6% |
| CCOC(=O)c1[nH]c2ccccc2c1NC(=O)COc1ccc(Cl)cc1Cl [CBK160134] | 102% |
| CCOC(=O)c1[nH]c2ccccc2c1NC(=O)c1ccc(Cl)cc1Br [CBK160140] | 96.7% |
| CCOC(=O)c1[nH]c2ccccc2c1NC(=O)CS(=O)(=O)c1ccc(C)cc1 [CBK160162] | 94.3% |
| CC(=O)Nc1ccc(-c2ccc(C(=O)N3CCN(C(=O)OCc4ccccc4)CC3)cn2)cc1 [CBK160185] | 87.6% |
| CC(=O)Nc1ccc(-c2ccc(C(=O)N3CCN(C(=O)N4CCCC4)CC3)cn2)cc1 [CBK160187] | 94.5% |
| CC(=O)Nc1ccc(-c2ccc(C(=O)N3CCC(Sc4ccccc4)CC3)cn2)cc1 [CBK160188] | 99.6% |
| CS(=O)(=O)c1ccc(-c2ccc(C(=O)N3CCN(C(=O)OCc4ccccc4)CC3)cn2)cc1 [CBK160189] | 107% |
